In patent US9802960B2 (MILLENNIUM PHARMACEUTICALS, INC., priority 2014, dated 2017):

Each compound was assayed against Human VPS34 (Homo sapiens (Human), UniProt Q8NEB9) (assay: Human VPS34 enzyme assay (Adapta TR-FRET)). Settings: IC50 range class.
Type: biochemical

Sequence of Human VPS34 (Q8NEB9 whole entry): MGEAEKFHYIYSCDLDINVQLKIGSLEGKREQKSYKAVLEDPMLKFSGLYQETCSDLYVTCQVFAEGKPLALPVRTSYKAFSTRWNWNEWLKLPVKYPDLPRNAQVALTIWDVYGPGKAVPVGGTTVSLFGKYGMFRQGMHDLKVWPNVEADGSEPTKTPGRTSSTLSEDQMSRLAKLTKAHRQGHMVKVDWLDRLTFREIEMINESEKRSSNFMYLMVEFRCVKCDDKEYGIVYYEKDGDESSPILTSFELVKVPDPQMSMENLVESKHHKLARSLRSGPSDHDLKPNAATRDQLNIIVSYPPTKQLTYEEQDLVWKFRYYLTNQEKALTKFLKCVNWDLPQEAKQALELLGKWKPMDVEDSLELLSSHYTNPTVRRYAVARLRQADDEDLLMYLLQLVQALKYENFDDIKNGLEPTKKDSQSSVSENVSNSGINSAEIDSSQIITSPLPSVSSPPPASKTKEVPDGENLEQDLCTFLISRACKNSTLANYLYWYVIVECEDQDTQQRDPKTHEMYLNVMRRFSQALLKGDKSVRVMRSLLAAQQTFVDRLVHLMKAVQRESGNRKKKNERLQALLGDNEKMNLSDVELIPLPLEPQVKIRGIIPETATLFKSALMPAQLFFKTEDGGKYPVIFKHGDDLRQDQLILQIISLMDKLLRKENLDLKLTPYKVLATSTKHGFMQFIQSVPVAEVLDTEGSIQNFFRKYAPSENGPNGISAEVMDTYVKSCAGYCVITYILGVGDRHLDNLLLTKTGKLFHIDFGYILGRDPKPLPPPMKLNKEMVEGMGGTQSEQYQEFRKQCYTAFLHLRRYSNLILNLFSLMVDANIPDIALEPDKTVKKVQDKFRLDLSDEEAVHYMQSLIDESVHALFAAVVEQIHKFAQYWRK

| Structure (SMILES) | IC50 |
| --- | --- |
| CC(=O)Nc1cc(-c2cnc(N)c(NS(=O)(=O)c3ccc(F)cc3F)c2)ccn1 [Compound I-64, N-(6-amino-5-{[(2,4-difluorophenyl)sulfonyl]amino}-3,4′-bipyridin-2′-yl)acetamide] | < 10 nM |

Same assay, conditions: compound concentration 1.11 μM; read-out: Percent Inhibition

| Structure (SMILES) | inhibition at 1.11 µM |
| --- | --- |
| COC(=O)Nc1cc(-c2cnc3ccn(CC4CC4)c3c2)ccn1 [Compound I-42, Methyl {4-[1-(cyclopropylmethyl)-1H-pyrrolo[3,2-b]pyridin-6-yl]pyridin-2-yl}carbamate] | > 99% |
| CC(=O)Nc1cc(-c2cnc(N)c(S(=O)(=O)Nc3ccccc3)c2)ccn1 [Compound I-43, N-[6-amino-5-(phenylsulfamoyl)-3,4′-bipyridin-2′-yl]acetamide] | > 99% |
| CCc1ccc(S(=O)(=O)Nc2cc(-c3ccnc(NC(C)=O)c3)cnc2C)cc1 [Compound I-44, N-(5-{[(4-ethylphenyl)sulfonyl]amino}-6-methyl-3,4′-bipyridin-2′-yl)acetamide] | > 99% |
| CC(=O)Nc1cc(-c2cnc(C)c(NS(=O)(=O)c3cccnc3)c2)ccn1 [Compound I-45, N-{6-methyl-5-[(pyridin-3-ylsulfonyl)amino]-3,4′-bipyridin-2′-yl}acetamide] | > 99% |
| CC(=O)Nc1cc(-c2cnc(C)c(N(C)S(=O)(=O)c3ccccc3)c2)ccn1 [Compound I-46, N-{6-methyl-5-[methyl(phenylsulfonyl)amino]-3,4′-bipyridin-2′-yl}acetamide] | > 99% |
| CC(=O)Nc1cc(-c2cncc(S(=O)(=O)N3CCCC3)c2)ccn1 [Compound I-47, N-[5-(pyrrolidin-1-ylsulfonyl)-3,4′-bipyridin-2′-yl]acetamide] | > 99% |
| CC(=O)Nc1cc(-c2cncc(C(=O)N(C)C)c2)ccn1 [Compound I-48, 2′-acetamido-N,N-dimethyl-3,4′-bipyridine-5-carboxamide] | > 99% |
| CC(=O)Nc1cc(-c2cnc(N)c(S(=O)(=O)NCC3CC3)c2C)ccn1 [Compound I-49, N-{6-amino-5-[(cyclopropylmethyl)sulfamoyl]-4-methyl-3,4′-bipyridin-2′-yl}acetamide] | > 99% |
| CC(=O)Nc1cc(-c2cnc(N)c(S(=O)(=O)Cc3ccccc3C(F)(F)F)c2)ccn1 [Compound I-50, N-(6-amino-5-{[2-(trifluoromethyl)benzyl]sulfonyl}-3,4′-bipyridin-2′-yl)acetamide] | > 99% |
| CC(=O)Nc1cc(-c2cncc(S(C)(=O)=O)c2)ccn1 [Compound I-51, N-[5-(methylsulfonyl)-3,4′-bipyridin-2′-yl]acetamide] | 91% |
| CC(=O)Nc1cc(-c2cnc(C)c(NS(=O)(=O)c3cc(F)ccc3F)c2)ccn1 [Compound I-52] | > 99% |
| CC(=O)Nc1cc(-c2cnc(NCC3CC3)c(N)c2)ccn1 [Compound I-53, N-{5-amino-6-[(cyclopropylmethyl)amino]-3,4′-bipyridin-2′-yl}acetamide] | 67% |
| CC(=O)Nc1cc(-c2cnc3[nH]cc(CN4CCCC4)c3c2)ccn1 [Compound I-54, N-{4-[3-(pyrrolidin-1-ylmethyl)-1H-pyrrolo[2,3-b]pyridin-5-yl]pyridin-2-yl}acetamide] | 83% |
| COC(=O)Nc1cc(-c2cnc(N)c(C(=O)N(C)C)c2)ccn1 [Compound I-55, methyl [6-amino-5-(dimethylcarbamoyl)-3,4′-bipyridin-2′-yl]carbamate] | > 99% |
| CC(=O)Nc1cc(-c2cnc(Cl)c(NS(=O)(=O)c3ccccc3)c2)c(C)cn1 [Compound I-56, N-{6-chloro-5′-methyl-5-[(phenylsulfonyl)amino]-3,4′-bipyridin-2′-yl}acetamide] | > 99% |
| CNC(=O)c1cc(-c2ccnc(NC(C)=O)c2)cnc1N [Compound I-57, 2′-acetamido-6-amino-N-methyl-3,4′-bipyridine-5-carboxamide] | > 99% |

| Structure (SMILES) | inhibition at 1.11 µM |
| --- | --- |
| COc1cc(F)ccc1S(=O)(=O)Nc1cc(-c2ccnc(NC(C)=O)c2)cnc1C [Compound I-58, N-(5-{[(4-fluoro-2-methoxyphenyl)sulfonyl]amino}-6-methyl-3,4′-bipyridin-2′-yl)acetamide] | > 99% |
| CC(=O)Nc1cc(-c2cnc(C)c(NS(=O)(=O)c3ccc(F)c(F)c3)c2)ccn1 [Compound I-59, N-(5-{[(3,4-difluorophenyl)sulfonyl]amino}-6-methyl-3,4′-bipyridin-2′-yl)acetamide] | > 99% |
| CC(=O)Nc1cc(-c2cnc(N)c(C(=O)N3CCC(F)(F)C3)c2)ccn1 [Compound I-60, N-{6-amino-5-[(3,3-difluoropyrrolidin-1-yl)carbonyl]-3,4′-bipyridin-2′-yl}acetamide] | > 99% |
| CC(=O)Nc1cc(-c2cnc(N)c(S(N)(=O)=O)c2)ccn1 [Compound I-61, N-(6-amino-5-sulfamoyl-3,4′-bipyridin-2′-yl)acetamide] | 95% |
| CC(=O)Nc1cc(-c2cnc(C)c(NS(=O)(=O)c3ccccc3C(F)(F)F)c2)ccn1 [Compound I-62, N-[6-methyl-5-({[2-(trifluoromethyl)phenyl]sulfonyl}amino)-3,4′-bipyridin-2′-yl]acetamide] | > 99% |
| CNc1ncc(-c2ccnc(NC(C)=O)c2)cc1S(=O)(=O)Nc1ccc(F)cc1F [Compound I-63, N-{5-[(2,4-difluorophenyl)sulfamoyl]-6-(methylamino)-3,4′-bipyridin-2′-yl}acetamide] | > 99% |
| CC(=O)Nc1cc(-c2cnc(N)c(NS(=O)(=O)c3ccc(F)cc3F)c2)ccn1 [Compound I-64, N-(6-amino-5-{[(2,4-difluorophenyl)sulfonyl]amino}-3,4′-bipyridin-2′-yl)acetamide] | > 99% |
| CC(=O)Nc1cc(-c2cnc(NCC3CC3)c(NCC3CC3)c2)ccn1 [Compound I-65, N-{5,6-bis[(cyclopropylmethyl)amino]-3,4′-bipyridin-2′-yl}acetamide] | 93% |
| CC(=O)Nc1cc(-c2cnc3[nH]c(C)nc3c2)ccn1 [Compound I-66, N-[4-(2-methyl-3H-imidazo[4,5-b]pyridin-6-yl)pyridin-2-yl]acetamide] | 88% |
| CC(=O)Nc1cc(-c2cnc3c(c2)CCN3)ccn1 [Compound I-67, N-[4-(2,3-dihydro-1H-pyrrolo[2,3-b]pyridin-5-yl)pyridin-2-yl]acetamide] | > 99% |
| CC(=O)Nc1cc(-c2cnc3c(c2)NS(=O)(=O)N3CC2CC2)ccn1 [Compound I-68, N-{4-[3-(cyclopropylmethyl)-2,2-dioxido-1,3-dihydro[1,2,5]thiadiazole[3,4-b]pyridin-6-yl]pyridin-2-yl}acetamide] | 98% |
| CCS(=O)(=O)c1cc(-c2ccnc(NC(C)=O)c2)cnc1N [Compound I-69, N-[6-amino-5-(ethylsulfonyl)-3,4′-bipyridin-2′-yl]acetamide] | > 99% |
| CC(=O)Nc1cc(-c2cnc(C)c(NS(=O)(=O)c3cccc(C(C)(C)C)c3)c2)ccn1 [Compound I-70, N-(5-{[(3-tert-butylphenyl)sulfonyl]amino}-6-methyl-3,4′-bipyridin-2′-yl)acetamide] | > 99% |
| CC(=O)Nc1cc(-c2cnc(N)c(C(=O)N3CCc4ccccc43)c2)ccn1 [Compound I-71, N-[6-amino-5-(2,3-dihydro-1H-indol-1-ylcarbonyl)-3,4′-bipyridin-2′-yl]acetamide] | > 99% |
| CC(=O)Nc1cc(-c2cnc(C)c(NS(=O)(=O)C3CCCCC3)c2)ccn1 [Compound I-72, N-{5-[(cyclohexylsulfonyl)amino]-6-methyl-3,4′-bipyridin-2′-yl}acetamide] | > 99% |
